Source: patent EP1144624B1, “HUMAN AND MOUSE TREK-1 POTASSIUM CHANNEL PROTEIN AND THEIR USE” (CENTRE NATIONAL DE LA RECHERCHE SCIENTIFIQUE, priority 1999, dated 2000)

Experiments:
Mouse TREK-1 = conditions: whole cell, voltage ramp from holding potential -80 mV, room temperature; 0.8 mM chloroform, 1 mM halothane, 2 mM isoflurane, 0.6 mM diethyl ether (Figs. 1-3)
Description: (§1) As performed herein, COS cells were seeded at a density of 20,000 cells per 35 mm dish 24 hours prior to transfection. Cells were transfected by the DEAE dextran protocol (1 µg DNA per plate). Mouse TREK-1 (GenBank Accession No. U73488), human TASK (GenBank Accession No. AF006823) and mouse TRAAK (GenBank Accession No. AF056492) fragments were amplified by polymerase chain reaction (PCR) and subcloned into the pIRES-CD8 vector. Transfected cells were visualized 48 hours after transfection using the anti-CD8 antibody coated beads method. For whole cell and excised patch experiments, the internal solution was 150 mM KCl, 3 mM MgCl2, 5mM EGTA and 10 mM HEPES at pH 7.2 with KOH and the external medium contained 150 mM NaCl, 5 mM KCL, 3 mM MgCl2, 1 mM CaCl2, 10 mM HEPES at pH 7.4 with NaOH. Cells were continuously superfused with a microperfusion system during the time course of the experiments (0.1 ml/min) performed at room temperature. A RK300 patch clamp amplifier (Biologic, Grenoble, France) was used for whole cell as well as single channel recordings. Ionic currents were monitored and recorded continuously using a DAT recorder (Biologic, Grenoble, France). Subsequently, data were replayed and sampled using pClamp software. Data analysis were performed using clampfit (pClamp) for whole cell recording as well as Biopatch (Biologic) software for single channel recordings. Membrane capacitance was measured during a […] hyperpolarizing step from a holding potential of -80 mV.
(§2) General anesthetics were directly dissolved in saline solutions. All experiments were performed at room temperature (24°C). Solutions were prepared every 3 hours in gas-tight bottles as stock solutions (calculated concentrations of 5 10 mM). Serial dilutions were prepared just prior to the electrophysiological experiment. 2.5 ml of each experimental solution at the desired concentration was placed in a syringe connected to the experimental superfusion system. The electrophysiological measurements were performed within 45 minutes.
(§3) The actual concentrations of anesthetics were subsequently determined by means of a gas chromatography method (HP 6890 equipped with a DB624 column) using FID detection. Sampled (2.5 ml of solution) were collected prior to (t0) and after perfusion (t45) through the experimental setup. Solutions were collected using gas impermeable tubing and stored in sealed glass containers at 4°C for subsequent analysis. Samplings and measurements were performed in duplicate. […] In the dose effect curves, the threshold concentrations were estimated as concentrations producing an increase higher than 10% in current amplitude.

human TASK = conditions: whole cell, voltage ramp from holding potential -80 mV, room temperature; 0.8 mM chloroform, 1 mM halothane, 2 mM isoflurane, 0.6 mM diethyl ether (Figs. 1-3)
Description: as §1, §2, §3

mouse TRAAK = test: Whole cell patch clamp of transfected COS cells expressing TRAAK; assay type: cell-based; conditions: voltage ramp from holding potential -80 mV, room temperature, 0.8 mM chloroform, 1 mM halothane, 2 mM isoflurane, 0.6 mM diethyl ether (Figs. 1-3)
Description: (§4) Subsequently, data were replayed and sampled using pClamp software.
General anesthetics were directly dissolved in saline solutions. All experiments were performed at room temperature (24°C). […] The electrophysiological measurements were performed within 45 minutes.
as §3

human TREK-1 channel = test: Whole cell patch clamp of transiently transfected COS cells expressing human TREK-1; assay type: cell-based
Source text: The functional properties of the human TREK-1 channel were studied on the basis of transfected COS cells temporarily expressing the protein. Like the murine channel, the human channel is selective for potassium and is activated by cis-unsaturated fatty acids, volatile anesthetics and by stretching of the plasma membrane. The currents are recordings in the whole-cell configuration of the patch-clamp technique (imposed potential gradient from -130 to +100 mV). The inverse potential of the currents follow the equilibrium potential of potassium when the extracellular concentration of potassium ions climbs from 5 to 155 mM. […] When a pressure of -66 mmHg is applied on the membrane, the TREK-1 currents are activated in a reversible manner.
as §4

[1] = system: COS cells expressing TREK-1; conditions: 0.8 mM chloroform; not in mock-transfected cells, n = 5
Description: As performed herein, COS cells were seeded at a density of 20,000 cells per 35 mm dish 24 hours prior to transfection. Cells were transfected by the DEAE dextran protocol (1 µg DNA per plate). […] Transfected cells were visualized 48 hours after transfection using the anti-CD8 antibody coated beads method. For whole cell and excised patch experiments, the internal solution was 150 mM KCl, 3 mM MgCl2, 5mM EGTA and 10 mM HEPES at pH 7.2 with KOH and the external medium contained 150 mM NaCl, 5 mM KCL, 3 mM MgCl2, 1 mM CaCl2, 10 mM HEPES at pH 7.4 with NaOH. Cells were continuously superfused with a microperfusion system during the time course of the experiments (0.1 ml/min) performed at room temperature. A RK300 patch clamp amplifier (Biologic, Grenoble, France) was used for whole cell as well as single channel recordings. Ionic currents were monitored and recorded continuously using a DAT recorder (Biologic, Grenoble, France). Subsequently, data were replayed and sampled using pClamp software. […] Membrane capacitance was measured during a 10 V hyperpolarizing step from a holding potential of -80 mV. […]
General anesthetics were directly dissolved in saline solutions. […] Solutions were prepared every 3 hours in gas-tight bottles as stock solutions (calculated concentrations of 5 10 mM). […]

SMILES | effect on TREK-1 K+ current (Mouse TREK-1) | effect on TASK K+ current (human TASK) | effect on TRAAK K+ current (mouse TRAAK) | effect on human TREK-1 currents (human TREK-1 channel; arachidonic acid 10 µM in the bath) | effect on membrane potential of COS cells expressing TREK-1 [1] | effect on human TREK-1 currents (human TREK-1 channel; concentrations employed in general anesthesia)
CCOCC [Diethyl ether, diethyl ether] | opened | decreased | did not affect |  |  | 
FC(F)OC(Cl)C(F)(F)F (stereo not drawn) [Isoflurane, isoflurane] | activated | activated | without altering |  |  | 
CCCCC/C=C\C/C=C\C/C=C\C/C=C\CCCC(=O)O [arachidonic acid] |  |  |  | induced activation |  | 
ClC(Cl)Cl [chloroform] | strongly and reversibly activated | slightly depressed | did not effect |  | reversibly and reproducibly hyperpolarized | 
FC(F)(F)C(Cl)Br (stereo not drawn) [halothane] | opened | opened | not TRAAK, were opened |  |  | induced activation
